Laboratory results: the supplement of paper PMC10307832

Tests used:
Assay in all cases: relative viability (nuclei count vs DMSO), 5 days (fraction); higher = more cells survive
LCLC-103H = test system: LCLC-103H
In short: (§1)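 Lung cancer cell lines in 1536-well plates got either a single drug or a fixed anchor-drug dose together with five library-drug doses (not always all listed) in √10 steps, by pin tool, on the day after seeding. Nuclei were counted after 5 days, and relative viability is the treated-to-vehicle ratio of nuclei counts. Values are medians of duplicate plates.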

HCC-827 = test system: HCC-827
In short: as §1

SK-LU-1 = test system: SK-LU-1
In short: as §1

HCC-44 = test system: HCC-44
In short: as §1

NCI-H2087 = test system: NCI-H2087
In short: as §1

NCI-H1395 = test system: NCI-H1395
In short: as §1

LXF-289 = test system: LXF-289
In short: as §1

NCI-H1944 = test system: NCI-H1944
In short: as §1

NCI-H322M = test system: NCI-H322M
In short: as §1

NCI-H647 = test system: NCI-H647
In short: as §1

CAL-12T = test system: CAL-12T
In short: as §1

NCI-H2228 = test system: NCI-H2228
In short: as §1

BEN = test system: BEN
In short: as §1

NCI-H1793 = test system: NCI-H1793
In short: as §1

NCI-H1437 = test system: NCI-H1437
In short: as §1

NCI-H2405 = test system: NCI-H2405
In short: as §1

NCI-H3122 = test system: NCI-H3122
In short: as §1

201T = test system: 201T
In short: as §1

NCI-H727 = test system: NCI-H727
In short: as §1

RERF-LC-KJ = test system: RERF-LC-KJ
In short: as §1

HOP-62 = test system: HOP-62
In short: as §1

LCLC-97TM1 = test system: LCLC-97TM1
In short: as §1

## C=C1C(=O)O[C@@H](CCCCCCCC)[C@@H]1C(=O)O [C-75] + C[C@]1(O)C[C@@H](c2nc(-c3ccc4ccc(-c5ccccc5)nc4c3)c3c(N)nccn32)C1 [Linsitinib] (partner 1 µM)
LCLC-103H; first compound 0.08 µM
  relative viability: 0.999
LCLC-103H; first compound 0.253 µM
  relative viability: 1.29
LCLC-103H; first compound 0.8 µM
  relative viability: 1.08
LCLC-103H; first compound 2.53 µM
  relative viability: 0.862
LCLC-103H; first compound 8 µM
  relative viability: 1.09
HCC-827; first compound 0.08 µM
  relative viability: 0.884
HCC-827; first compound 0.253 µM
  relative viability: 0.92
HCC-827; first compound 0.8 µM
  relative viability: 1
HCC-827; first compound 2.53 µM
  relative viability: 0.972
HCC-827; first compound 8 µM
  relative viability: 0.923
SK-LU-1; first compound 0.08 µM
  relative viability: 1.28
SK-LU-1; first compound 0.253 µM
  relative viability: 1.07
SK-LU-1; first compound 0.8 µM
  relative viability: 1.05
SK-LU-1; first compound 2.53 µM
  relative viability: 0.911
SK-LU-1; first compound 8 µM
  relative viability: 0.636
HCC-44; first compound 0.08 µM
  relative viability: 0.598
HCC-44; first compound 0.253 µM
  relative viability: 0.633
HCC-44; first compound 0.8 µM
  relative viability: 0.618
HCC-44; first compound 2.53 µM
  relative viability: 0.453
HCC-44; first compound 8 µM
  relative viability: 0.667
NCI-H2087; first compound 0.08 µM
  relative viability: 1.24
NCI-H2087; first compound 0.253 µM
  relative viability: 0.898
NCI-H2087; first compound 0.8 µM
  relative viability: 0.975
NCI-H2087; first compound 2.53 µM
  relative viability: 0.867
NCI-H2087; first compound 8 µM
  relative viability: 1
NCI-H1395; first compound 0.08 µM
  relative viability: 1.11
NCI-H1395; first compound 0.253 µM
  relative viability: 1.05
NCI-H1395; first compound 0.8 µM
  relative viability: 1.12
NCI-H1395; first compound 2.53 µM
  relative viability: 1.11
NCI-H1395; first compound 8 µM
  relative viability: 1.25
LXF-289; first compound 0.08 µM
  relative viability: 0.925
LXF-289; first compound 0.253 µM
  relative viability: 0.979
LXF-289; first compound 0.8 µM
  relative viability: 0.953
LXF-289; first compound 2.53 µM
  relative viability: 0.94
LXF-289; first compound 8 µM
  relative viability: 0.966
NCI-H1944; first compound 0.08 µM
  relative viability: 1.13
NCI-H1944; first compound 0.253 µM
  relative viability: 0.961
NCI-H1944; first compound 0.8 µM
  relative viability: 1.26
NCI-H1944; first compound 8 µM
  relative viability: 1.19
NCI-H322M; first compound 0.08 µM
  relative viability: 0.887
NCI-H322M; first compound 0.253 µM
  relative viability: 1.05
NCI-H322M; first compound 0.8 µM
  relative viability: 0.999
NCI-H322M; first compound 2.53 µM
  relative viability: 0.816
NCI-H322M; first compound 8 µM
  relative viability: 1.08
NCI-H647; first compound 0.08 µM
  relative viability: 1.18
NCI-H647; first compound 0.253 µM
  relative viability: 1.31
NCI-H647; first compound 2.53 µM
  relative viability: 0.903
NCI-H647; first compound 8 µM
  relative viability: 0.823
CAL-12T; first compound 0.08 µM
  relative viability: 0.814
CAL-12T; first compound 0.253 µM
  relative viability: 1.02
CAL-12T; first compound 0.8 µM
  relative viability: 0.751
CAL-12T; first compound 2.53 µM
  relative viability: 0.701
CAL-12T; first compound 8 µM
  relative viability: 0.792
NCI-H2228; first compound 0.08 µM
  relative viability: 1.03
NCI-H2228; first compound 0.253 µM
  relative viability: 1.04
NCI-H2228; first compound 0.8 µM
  relative viability: 0.543
NCI-H2228; first compound 2.53 µM
  relative viability: 0.594
NCI-H2228; first compound 8 µM
  relative viability: 0.66
BEN; first compound 0.08 µM
  relative viability: 0.847
BEN; first compound 0.253 µM
  relative viability: 0.982
BEN; first compound 0.8 µM
  relative viability: 0.937
BEN; first compound 2.53 µM
  relative viability: 0.873
BEN; first compound 8 µM
  relative viability: 0.854
NCI-H1793; first compound 0.08 µM
  relative viability: 0.775
NCI-H1793; first compound 0.253 µM
  relative viability: 1.18
NCI-H1793; first compound 0.8 µM
  relative viability: 0.698
NCI-H1793; first compound 2.53 µM
  relative viability: 0.658
NCI-H1793; first compound 8 µM
  relative viability: 0.942
NCI-H1437; first compound 0.08 µM
  relative viability: 1.03
NCI-H1437; first compound 0.253 µM
  relative viability: 1
NCI-H1437; first compound 0.8 µM
  relative viability: 1.04
NCI-H1437; first compound 2.53 µM
  relative viability: 1.01
NCI-H1437; first compound 8 µM
  relative viability: 1.04
NCI-H2405; first compound 0.08 µM
  relative viability: 0.882
NCI-H2405; first compound 0.253 µM
  relative viability: 0.728
NCI-H2405; first compound 0.8 µM
  relative viability: 0.872
NCI-H2405; first compound 2.53 µM
  relative viability: 0.967
NCI-H2405; first compound 8 µM
  relative viability: 0.989
NCI-H3122; first compound 0.08 µM
  relative viability: 1.02
NCI-H3122; first compound 0.253 µM
  relative viability: 1.06
NCI-H3122; first compound 0.8 µM
  relative viability: 1.04
NCI-H3122; first compound 8 µM
  relative viability: 1.1
201T; first compound 0.08 µM
  relative viability: 1.01
201T; first compound 0.253 µM
  relative viability: 1.06
201T; first compound 0.8 µM
  relative viability: 1.1
201T; first compound 2.53 µM
  relative viability: 1.02
201T; first compound 8 µM
  relative viability: 1.1
NCI-H727; first compound 0.08 µM
  relative viability: 0.277
NCI-H727; first compound 0.253 µM
  relative viability: 0.614
NCI-H727; first compound 0.8 µM
  relative viability: 0.263
NCI-H727; first compound 2.53 µM
  relative viability: 0.183
NCI-H727; first compound 8 µM
  relative viability: 0.283
RERF-LC-KJ; first compound 0.08 µM
  relative viability: 0.912
RERF-LC-KJ; first compound 0.253 µM
  relative viability: 0.994
RERF-LC-KJ; first compound 0.8 µM
  relative viability: 0.827
RERF-LC-KJ; first compound 2.53 µM
  relative viability: 0.739
RERF-LC-KJ; first compound 8 µM
  relative viability: 0.971
HOP-62; first compound 0.08 µM
  relative viability: 0.944
HOP-62; first compound 0.253 µM
  relative viability: 0.894
HOP-62; first compound 0.8 µM
  relative viability: 0.841
HOP-62; first compound 2.53 µM
  relative viability: 0.843
HOP-62; first compound 8 µM
  relative viability: 0.875
LCLC-97TM1; first compound 0.08 µM
  relative viability: 0.2
LCLC-97TM1; first compound 0.253 µM
  relative viability: 0.309
LCLC-97TM1; first compound 0.8 µM
  relative viability: 0.177
LCLC-97TM1; first compound 2.53 µM
  relative viability: 0.105
LCLC-97TM1; first compound 8 µM
  relative viability: 0.18
